Assays:
Assay in all cases: relative viability (nuclei count vs DMSO), 5 days (fraction); higher = more cells survive
NCI-H2170 = test system: NCI-H2170
Summary of the method: (§1)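 Medians of duplicate plates are given as relative viability. That measure is the nuclei count in treated wells divided by the count in vehicle wells. Counts were taken on 4× images of lung cancer cell lines in 1536-well plates, 5 days after pin-tool dosing the day after seeding with one drug alone or a fixed anchor-drug dose plus five library-drug doses (not always all listed) in √10 steps.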

NCI-H441 = test system: NCI-H441
Summary of the method: as §1

NCI-H2023 = test system: NCI-H2023
Summary of the method: as §1

LC-2-ad = test system: LC-2-ad
Summary of the method: as §1

SW 900 = test system: SW 900
Summary of the method: as §1

NCI-H650 = test system: NCI-H650
Summary of the method: as §1

NCI-H1651 = test system: NCI-H1651
Summary of the method: as §1

NCI-H2009 = test system: NCI-H2009
Summary of the method: as §1

EPLC-272H = test system: EPLC-272H
Summary of the method: as §1

NCI-H727 = test system: NCI-H727
Summary of the method: as §1

NCI-H23 = test system: NCI-H23
Summary of the method: as §1

LOU-NH91 = test system: LOU-NH91
Summary of the method: as §1

H3255 = test system: H3255
Summary of the method: as §1

PC-3 [JPC-3] = test system: PC-3 [JPC-3]
Summary of the method: as §1

HARA = test system: HARA
Summary of the method: as §1

NCI-H2085 = test system: NCI-H2085
Summary of the method: as §1

NCI-H2087 = test system: NCI-H2087
Summary of the method: as §1

NCI-H1650 = test system: NCI-H1650
Summary of the method: as §1

UMC-11 = test system: UMC-11
Summary of the method: as §1

NCI-H1975 = test system: NCI-H1975
Summary of the method: as §1

SW 1573 = test system: SW 1573
Summary of the method: as §1

NCI-H838 = test system: NCI-H838
Summary of the method: as §1

CCNC(=O)c1noc(-c2cc(C(C)C)c(O)cc2O)c1-c1ccc(CN2CCOCC2)cc1 [Luminespib] + Nc1ncn([C@H]2C[C@H](O)[C@@H](CO)O2)c(=O)n1 [Decitabine] (partner 2 µM)
relative viability (NCI-H2170; first compound 0.002 µM): 0.468
relative viability (NCI-H2170; first compound 0.006325 µM): 0.456
relative viability (NCI-H2170; first compound 0.06325 µM): 0.47
relative viability (NCI-H2170; first compound 0.2 µM): 0.507
relative viability (NCI-H441; first compound 0.002 µM): 0.255
relative viability (NCI-H441; first compound 0.006325 µM): 0.26
relative viability (NCI-H441; first compound 0.02 µM): 0.184
relative viability (NCI-H441; first compound 0.06325 µM): 0.155
relative viability (NCI-H441; first compound 0.2 µM): 0.134
relative viability (NCI-H2023; first compound 0.002 µM): 0.242
relative viability (NCI-H2023; first compound 0.006325 µM): 0.218
relative viability (NCI-H2023; first compound 0.02 µM): 0.136
relative viability (NCI-H2023; first compound 0.06325 µM): 0.0602
relative viability (NCI-H2023; first compound 0.2 µM): 0.0539
relative viability (LC-2-ad; first compound 0.002 µM): 0.886
relative viability (LC-2-ad; first compound 0.006325 µM): 0.766
relative viability (LC-2-ad; first compound 0.02 µM): 0.754
relative viability (LC-2-ad; first compound 0.06325 µM): 0.778
relative viability (LC-2-ad; first compound 0.2 µM): 0.786
relative viability (SW 900; first compound 0.002 µM): 0.478
relative viability (SW 900; first compound 0.006325 µM): 0.472
relative viability (SW 900; first compound 0.02 µM): 0.417
relative viability (SW 900; first compound 0.06325 µM): 0.156
relative viability (SW 900; first compound 0.2 µM): 0.159
relative viability (NCI-H650; first compound 0.002 µM): 0.282
relative viability (NCI-H650; first compound 0.006325 µM): 0.354
relative viability (NCI-H650; first compound 0.02 µM): 0.307
relative viability (NCI-H650; first compound 0.06325 µM): 0.252
relative viability (NCI-H650; first compound 0.2 µM): 0.0854
relative viability (NCI-H1651; first compound 0.002 µM): 0.612
relative viability (NCI-H1651; first compound 0.006325 µM): 0.553
relative viability (NCI-H1651; first compound 0.02 µM): 0.594
relative viability (NCI-H1651; first compound 0.06325 µM): 0.469
relative viability (NCI-H1651; first compound 0.2 µM): 0.226
relative viability (NCI-H2009; first compound 0.002 µM): 0.405
relative viability (NCI-H2009; first compound 0.006325 µM): 0.364
relative viability (NCI-H2009; first compound 0.02 µM): 0.368
relative viability (NCI-H2009; first compound 0.06325 µM): 0.187
relative viability (NCI-H2009; first compound 0.2 µM): 0.135
relative viability (EPLC-272H; first compound 0.002 µM): 0.393
relative viability (EPLC-272H; first compound 0.006325 µM): 0.337
relative viability (EPLC-272H; first compound 0.02 µM): 0.311
relative viability (EPLC-272H; first compound 0.06325 µM): 0.282
relative viability (EPLC-272H; first compound 0.2 µM): 0.106
relative viability (NCI-H727; first compound 0.002 µM): 0.893
relative viability (NCI-H727; first compound 0.006325 µM): 0.857
relative viability (NCI-H727; first compound 0.02 µM): 0.652
relative viability (NCI-H727; first compound 0.06325 µM): 0.461
relative viability (NCI-H727; first compound 0.2 µM): 0.368
relative viability (NCI-H23; first compound 0.002 µM): 0.285
relative viability (NCI-H23; first compound 0.006325 µM): 0.346
relative viability (NCI-H23; first compound 0.02 µM): 0.265
relative viability (NCI-H23; first compound 0.06325 µM): 0.164
relative viability (NCI-H23; first compound 0.2 µM): 0.164
relative viability (LOU-NH91; first compound 0.002 µM): 0.8
relative viability (LOU-NH91; first compound 0.006325 µM): 0.844
relative viability (LOU-NH91; first compound 0.02 µM): 0.686
relative viability (LOU-NH91; first compound 0.06325 µM): 0.382
relative viability (LOU-NH91; first compound 0.2 µM): 0.436
relative viability (H3255; first compound 0.002 µM): 0.639
relative viability (H3255; first compound 0.02 µM): 0.446
relative viability (H3255; first compound 0.06325 µM): 0.425
relative viability (H3255; first compound 0.2 µM): 0.222
relative viability (PC-3 [JPC-3]; first compound 0.002 µM): 0.888
relative viability (PC-3 [JPC-3]; first compound 0.006325 µM): 0.842
relative viability (PC-3 [JPC-3]; first compound 0.02 µM): 0.705
relative viability (PC-3 [JPC-3]; first compound 0.06325 µM): 0.397
relative viability (PC-3 [JPC-3]; first compound 0.2 µM): 0.506
relative viability (HARA; first compound 0.002 µM): 0.55
relative viability (HARA; first compound 0.006325 µM): 0.569
relative viability (HARA; first compound 0.02 µM): 0.532
relative viability (HARA; first compound 0.06325 µM): 0.225
relative viability (HARA; first compound 0.2 µM): 0.227
relative viability (NCI-H2085; first compound 0.002 µM): 0.547
relative viability (NCI-H2085; first compound 0.006325 µM): 0.577
relative viability (NCI-H2085; first compound 0.02 µM): 0.519
relative viability (NCI-H2085; first compound 0.06325 µM): 0.486
relative viability (NCI-H2085; first compound 0.2 µM): 0.346
relative viability (NCI-H2087; first compound 0.002 µM): 0.25
relative viability (NCI-H2087; first compound 0.006325 µM): 0.235
relative viability (NCI-H2087; first compound 0.02 µM): 0.189
relative viability (NCI-H2087; first compound 0.06325 µM): 0.145
relative viability (NCI-H2087; first compound 0.2 µM): 0.101
relative viability (NCI-H1650; first compound 0.002 µM): 0.463
relative viability (NCI-H1650; first compound 0.006325 µM): 0.565
relative viability (NCI-H1650; first compound 0.02 µM): 0.267
relative viability (NCI-H1650; first compound 0.06325 µM): 0.137
relative viability (NCI-H1650; first compound 0.2 µM): 0.133
relative viability (UMC-11; first compound 0.002 µM): 0.604
relative viability (UMC-11; first compound 0.006325 µM): 0.569
relative viability (UMC-11; first compound 0.02 µM): 0.334
relative viability (UMC-11; first compound 0.06325 µM): 0.56
relative viability (UMC-11; first compound 0.2 µM): 0.23
relative viability (NCI-H1975; first compound 0.002 µM): 0.393
relative viability (NCI-H1975; first compound 0.006325 µM): 0.346
relative viability (NCI-H1975; first compound 0.02 µM): 0.355
relative viability (NCI-H1975; first compound 0.06325 µM): 0.127
relative viability (NCI-H1975; first compound 0.2 µM): 0.144
relative viability (SW 1573; first compound 0.002 µM): 0.569
relative viability (SW 1573; first compound 0.006325 µM): 0.456
relative viability (SW 1573; first compound 0.02 µM): 0.159
relative viability (SW 1573; first compound 0.06325 µM): 0.072
relative viability (SW 1573; first compound 0.2 µM): 0.0827
relative viability (NCI-H838; first compound 0.002 µM): 0.495
relative viability (NCI-H838; first compound 0.006325 µM): 0.491
relative viability (NCI-H838; first compound 0.02 µM): 0.422
relative viability (NCI-H838; first compound 0.06325 µM): 0.176
relative viability (NCI-H838; first compound 0.2 µM): 0.193

From the supplement of paper PMC10307832
